Here are results for four compounds from patent US11286263B2, “Macrocyclic fluorine substituted indole derivatives” (The Broad Institute, Inc., priority 2017, dated 2022).

Molecules are shown by their SMILES. Values joined by “and” are separate entries in the source; they are usually repeats but may differ in a detail not shown here. Equal values may be shown once. Read-outs that look alike come from different tables or passages of the source.

For data set [1] the following is noted: amine bond, Cs2CO3.
A further data set concerns SK-BR-3. Nature of the data set: Antiproliferation assay SK-BR-3 (Assay 7). Type of data set: cell-based. Conditions: Homo sapiens, SK-BR-3, 72 h, SK-BR-3 cells, CellTiter-Glo, single determinations, read-out: IC50 Antiproli SK-BR-3. On the procedure: (§1) Assessment of the Anti-Proliferative Effect of Compounds in Different Cell Lines
(§2) The impact of compounds on the proliferation of different cell lines was assessed using the CellTiter-Glo® Luminescent Cell Viability reagent from Promega (G7573).
(§3) In parallel, cells were plated in a reference (day 0) plate for time zero determination.
(§4) Rim wells were excluded. The cells were incubated for 72 h hours in a humidified incubator at 37° C. The day 0 plate was measured by adding 30 μL/well of CTG solution (CellTiter-Glo® Luminescent Cell Viability reagent, Promega G7573) to time zero wells in the reference plate followed by a 10 minutes incubation and luminescence reading at 0.1 ms. using the PHERAstar FS microplate reader (BMG Labtech).
(§5) After 72 h incubation, the treated plates were measured in the same way as the day 0 plate mentioned above.

Data set [2] has as its system SUDHL5. Kind of data set: Induction of cytotoxicity, SUDHL5 (Assay 6). Conditions: Homo sapiens, SU-DHL-5, 5 h, read-out: IC50 Cytotox SUDHL5 [M] (median), SUDHL5 cells, 5 h, CellTiter-Glo.
A further data set deals with MCL-1 (Homo sapiens (Human), UniProt Q07820, K194A/K197A/R201A). Kind of data set: Protein-protein interaction assay MCL-1/Noxa BH3 peptide (MCL-1 assay), TR-FRET. Type of data set: binding. The conditions noted are these: MCL-1/Noxa BH3 peptide TR-FRET; median. The method in brief:
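TR-FRET competition between MBP-MCL-1 (173-321, 1 nM) and biotin-Noxa BH3 peptide (1 nM) with anti-MBP-Eu/streptavidin-XL665; 11 compound levels 0.1 nM–20 μM, 10 min preincubation. Incubated 1 h at 22 °C then overnight at 4 °C, pH 7 Tris buffer. 665/620 ratio normalized to DMSO and no-MCL-1; 4-parameter IC50.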

The subject of data set [3] is SUDHL10. Kind of data set: Induction of caspase-3/7 activity, SUDHL10 (Assay 4). Conditions: Homo sapiens, SU-DHL10, 3 h, SUDHL10 cells, Caspase-Glo 3/7, median. Type of data set: cell-based. An outline of the steps: (§6)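 DLBCL lines treated with compounds for 3 h at 37° C.; caspase-3/7 activity read by Caspase-Glo 3/7 luminescence. Medium-only background subtracted; EC50 fitted with bottom fixed at 1 and top set to reference compound's maximal induction.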

For data set [4], the system named is SUDHL5. Nature of the data set: Antiproliferation assay SUDHL5 (Assay 7). Type of data set: cell-based. Conditions: Homo sapiens, SU-DHL-5, 72 h, SUDHL5 cells, CellTiter-Glo, median, read-out: IC50 Antiproli SUDHL5 [M] (median). An outline of the steps:
(§7)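 Cells plated in treatment plates plus a day 0 reference plate; incubated 72 h at 37 °C; CellTiter-Glo added, 10 min incubation, luminescence read; day 0 plate read at time zero.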

Another data set relates to A2780. Nature of the data set: Antiproliferation assay A2780 (Assay 7). Type of data set: cell-based. The conditions noted are these: A2780 cells, CellTiter-Glo, single determinations, read-out: IC50 Antiproli A2780. An outline of the steps:
as §7

The next data set deals with AMO-1. Nature of the data set: Antiproliferation assay AMO-1 (Assay 7). Type of data set: cell-based. The conditions noted are these: AMO-1 cells, CellTiter-Glo, single determinations, read-out: IC50 Antiproli AMO-1. An outline of the steps: as §7
The test system of data set [5] is SUDHL10. Kind of data set: Induction of cytotoxicity, SUDHL10 (Assay 6). Conditions: Homo sapiens, SU-DHL10, 5 h, read-out: IC50 Cytotox SUDHL10 [M] (median), SUDHL10 cells, 5 h, CellTiter-Glo.
Procedure: In principle, compounds that induce apoptosis will concomitantly induce cell cytotoxicity. Therefore, cytotoxicity assays were run in parallel in SUDHL5 and SUDHL10 cells.
The different cell lines were plated in culture medium (RPMI 1640 [GIBCO #22400-089] supplemented with 10% Fetal Bovine Serum) at a density of 3,300 cells in 30 μl/well in a sterile, solid black, flat bottom, polystyrene, TC-treated 384-well microplate (Corning #3571) using Multidrop Combi Reagent Dispenser. As a control, medium without cells was also added to the plate. Cells were incubated in a humidified incubator at 37° C. overnight. On the next day, the cells were treated with compounds (stock solution, 10 mM in DMSO) using the HP D300 Digital Dispenser in a concentration range of 3.3×10e-5 M (33 μM) to 5×10e-9 M (5 nM) in a single-dot curve with at least 16 dilutions and a DMSO concentration of 0.33%. Rim wells were excluded. The cells were incubated for 5 h hours in a humidified incubator at 37° C. After this incubation, 30 μl of CellTiter-Glo® Luminescent Cell Viability reagent (Promega, G7573) was added to each well using the Multidrop Combi Reagent Dispenser, followed by 15 min incubation on a shaker at room temperature. Finally, luminescence was read at 0.1 ms, with a gain of 3000 using the PHERAstar FS microplate reader (BMG Labtech).
The Bella DRC Master Sheet was used to calculate IC50s, with fixed CI=0 and C0=1.
Data set [6] deals with SUDHL5. Kind of data set: Induction of caspase-3/7 activity, SUDHL5 (Assay 4). Type of data set: cell-based. The conditions noted are these: Homo sapiens, SU-DHL-5, 3 h, SUDHL5 cells, Caspase-Glo 3/7, median. The method in brief: as §6
The next data set deals with MV-4-11. Nature of the data set: Antiproliferation assay MV-4-11 (Assay 7). Type of data set: cell-based. The conditions noted are these: MV-4-11 cells, CellTiter-Glo, single determinations, read-out: IC50 Antiproli MV-4-11. The method in brief: as §7
In data set [7] the test system is SUDHL10. Kind of data set: Antiproliferation assay SUDHL10 (Assay 7). Type of data set: cell-based. Conditions: Homo sapiens, SU-DHL10; SUDHL10 cells, 72 h, CellTiter-Glo; median; read-out: IC50 Antiproli SUDHL10 [M] (median). On the procedure: as §1, §2, §3, §4, §5

MCL-1, sequence (Q07820 whole entry K194A/K197A/R201A, looked up): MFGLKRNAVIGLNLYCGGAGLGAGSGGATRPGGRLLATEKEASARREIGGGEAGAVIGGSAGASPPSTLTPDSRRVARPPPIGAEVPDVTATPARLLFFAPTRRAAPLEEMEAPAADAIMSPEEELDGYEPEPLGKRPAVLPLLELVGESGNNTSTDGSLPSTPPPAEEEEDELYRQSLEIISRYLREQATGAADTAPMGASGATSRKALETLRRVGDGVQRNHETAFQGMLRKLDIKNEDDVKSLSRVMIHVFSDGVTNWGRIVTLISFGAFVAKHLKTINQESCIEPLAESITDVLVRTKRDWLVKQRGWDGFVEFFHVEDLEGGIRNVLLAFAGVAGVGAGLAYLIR

As to `CCOC(=O)c1c(CCCO)c2ccc(F)c3c2n1CCCCN(C)Cc1nn(C)c(CC)c1-3`, in data set [1] (from CCOC(=O)c1c(CCCO[Si](C)(C)C(C)(C)C)c2ccc(F)c(-c3c(CBr)nn(C)c3CC)c2n1CCCCN(C)C(=O)OC(C)(C)C, acetonitrile, 44.5 mM, 60.0 °C, 6.0 h, 2 steps), the ring closure, yield of all isomers was found to be 46%.
Turning to `CCOC(=O)c1c(CCCOc2cccc3ccccc23)c2ccc(F)c3c2n1CCCCNCc1nn(C)c(C)c1-3`, the ring closure, yield of all isomers in data set [1] (from CCOC(=O)c1c(CCCOc2cccc3ccccc23)c2ccc(F)c(-c3c(CBr)nn(C)c3C)c2n1CCCCN, DMF, 10.0 mM, 65.0 °C, 17.0 h) was 48.6%.
For `CCc1c2c(nn1C)COCCCCn1c(C(=O)O)c(CCCOc3cccc4ccccc34)c3ccc(F)c-2c31` (racemic) [Example 6, (rac)-3-ethyl-4-fluoro-2-methyl-7-[3-(naphthalen-1-yloxy)propyl]-2,10,11,12,13,15-hexahydro-pyrazolo[4′,3′:9,10][1,6]oxazacycloundecino[8,7,6-hi]indole-8-carboxylic acid], the IC50 was 7.29 µM in the data set on SK-BR-3; 6.4e-07 M in the data set on SUDHL5 [2]; 0.0011 µM at MCL-1; 9.8e-07 M in the data set on SUDHL5 [4]; 10.6 µM and 13.1 µM in the data set with A2780 (72 h, listed as 06); 14.5 µM in the data set on A2780 (Homo sapiens, A2780, 72 h). The IC50 in the data set with AMO-1 (Homo sapiens, AMO1, 72 h) was 2.63 µM; in the data set with SUDHL10 [5], 1.3e-06 M; in the data set with MV-4-11 (Homo sapiens, MV4-11, 72 h) it was 3.83 µM; in the data set with MV-4-11 (72 h, listed as 06) it was 2.82 µM and 2.76 µM and 2.35 µM. For the same compound, the EC50 turned out to be 1.1 µM in the data set on SUDHL10 [3] and 0.4 µM in the data set with SUDHL5 [6].
Take `CCc1c2c(nn1C)COCCCCn1c(C(=O)O)c(CCCOc3cccc4cc(F)ccc34)c3ccc(F)c-2c31` (racemic) [Example 21, (rac)-12-ethyl-13-fluoro-1-(3-((6-fluoronaphthalen-1-yl)oxy)propyl)-11-methyl-4,5,6,7,9,11-hexahydropyrazolo[4′,3′:9,10][1]oxa[6]azacycloundecino[8,7,6-hi]indole-2-carboxylic acid]: the IC50 is 5.1e-07 M in the data set with SUDHL5 [2]; 0.00086 µM against MCL-1; 7.3e-07 M in the data set on SUDHL5 [4]; 3.47 µM in the data set on A2780 (Homo sapiens, A2780, 72 h); 0.942 µM and 1.12 µM in the data set with AMO-1 (72 h); 1.22 µM with AMO-1 (Homo sapiens, AMO1, 72 h). The IC50 was found to be 8.5e-07 M with SUDHL10 [5] and 6.3e-07 M in the data set on SUDHL10 [7]. Moreover, the values for the EC50 in the data set with SUDHL10 [3] and with SUDHL5 [6] were 0.9 µM and 0.35 µM, respectively.
